Reference: patent publication US9079866B2, “Flap modulators” (JANSSEN PHARMACEUTICA NV, priority 2013, dated 2015)
Counter-ions that a name gives are not always drawn.

Each molecule was assayed on leukotriene pathway in human whole blood (LTB4 levels) (assay: Human whole blood assay (A23187-stimulated LTB4)). Conditions: Homo sapiens, human whole blood diluted 1:1, A23187-stimulated; read-out: LTB4 IC50 1:1.
Assay type: cell-based
Description: The ability of the compounds of the present invention to treat a FLAP-mediated disease and/or disorder, or associated symptoms or complications thereof, was determined using the following procedures. Binding assay data represent the average value obtained from two different assay plates, with samples run in duplicate on each plate. Human whole blood assay data represent a single replicate on an assay plate using whole blood from at least one healthy donor.
An in vitro cellular assay was performed using human whole blood collected in heparin-containing tubes, which was used to test the ability of compounds to modulate the leukotriene pathway in human whole blood. The blood was diluted 1:1 in RPMI medium, pre-incubated for 15 min at 37° Celsius with test compounds at various concentrations, and then stimulated with calcium ionophore, A23187 (7 μg/mL), for 30 min at 37° Celsius. The samples were then centrifuged and plasma was removed. The plasma was diluted in assay buffer and LTB4 levels were measured using a commercial kit (Enzo Life Sciences). The concentration of each compound that was required for half-maximal inhibition (modulation) of recombinant enzyme activity (IC50) was calculated by a 4-parameter equation using the program GraphPad Prism (GraphPad software).

First: N#CC1(S(=O)(=O)c2ccccc2-c2ccc(-c3cnc(N)nc3)c(F)c2)CCCC1 [Example 738, 1-{[4′-(2-Aminopyrimidin-5-yl)-3′-fluorobiphenyl-2-yl]sulfonyl}cyclopentanecarbonitrile]
Second: Nc1ncc(-c2ccc(-c3ccccc3S(=O)(=O)N3CCCC(O)C3)cc2F)cc1F (racemic) [Example 668, (racemic)-1-((4′-(6-Amino-5-fluoropyridin-3-yl)-3′-fluoro-[1,1′-biphenyl]-2-yl)sulfonyl)piperidin-3-ol]
The IC50 of the first is 16-fold higher: 2950 nM for the first, 190 nM for the second. The second is the more potent here.

`CC(C)(C)NS(=O)(=O)c1ccccc1-c1cnc(-c2cnc(N)nc2)c(F)c1` [Example 675, 2-[6-(2-Aminopyrimidin-5-yl)-5-fluoropyridin-3-yl]-N-tert-butylbenzenesulfonamide] and `CC(C)(C)NS(=O)(=O)c1ccccc1-c1ccc(-c2cnc(N)c(F)c2)c(F)c1` [Example 430, 4′-(6-Amino-5-fluoropyridin-3-yl)-N-tert-butyl-3′-fluorobiphenyl-2-sulfonamide] are within 1.5-fold of each other in IC50: 55.1 nM for the first, 59 nM for the second.

Going from `C[C@@H]([C@@H](O)c1ccccc1)N(C)S(=O)(=O)c1ccccc1-c1ccc(-c2ccc(N)nc2)c(F)c1` [Example 666, 4′-(6-Aminopyridin-3-yl)-3′-fluoro-N-((1S,2S)-1-hydroxy-1-phenylpropan-2-yl)-N-methyl-[1,1′-biphenyl]-2-sulfonamide] to `CC(C)(C(N)=O)S(=O)(=O)c1ccccc1-c1ccc(-c2cnc(N)cn2)c(F)c1` [Example 736, 2-{[4′-(5-Aminopyrazin-2-yl)-3′-fluorobiphenyl-2-yl]sulfonyl}-2-methylpropanamide], the IC50 rises from 36.1 nM to 414 nM (11-fold).

Going from `Nc1cnc(-c2ccc(-c3ccccc3O[C@H]3CCCNC3)cc2F)cn1` [Example 634, 5-{3-Fluoro-2′-[(3S)-piperidin-3-yloxy]biphenyl-4-yl}pyrazin-2-amine] to `Nc1cnc(-c2ccc(-c3cccnc3OC3CCCCC3)cc2F)cn1` [Example 403, 5-{4-[2-(Cyclohexyloxy)pyridin-3-yl]-2-fluorophenyl}pyrazin-2-amine], the IC50 falls from 1470 nM to 389 nM (3.8-fold). The second is the more potent here.

`Nc1nc(-c2ccc(-c3ccccc3S(=O)(=O)N3CCCC3)cc2F)cs1` [Example 579, 4-[3-Fluoro-2′-(pyrrolidin-1-ylsulfonyl)biphenyl-4-yl]-1,3-thiazol-2-amine] and `Cc1nc(-c2ccc(-c3ccccc3S(N)(=O)=O)cc2F)cnc1N` [Example 446, 4′-(5-Amino-6-methylpyrazin-2-yl)-3′-fluorobiphenyl-2-sulfonamide] are within 1.5-fold of each other in IC50: 1540 nM for the first, 1370 nM for the second.

Compared with `COc1cc(C(F)(F)F)ccc1-c1ccc(-c2cnc(N)cn2)c(F)c1` [Example 553, 5-[3-Fluoro-2′-methoxy-4′-(trifluoromethyl)biphenyl-4-yl]pyrazin-2-amine], `N#Cc1nc(N)cnc1-c1ccc(-c2ccc(C(F)(F)F)cc2S(=O)(=O)N2CCNC(=O)C2)cc1F` [Example 715, 6-Amino-3-{3-fluoro-2′-[(3-oxopiperazin-1-yl)sulfonyl]-4′-(trifluoromethyl)biphenyl-4-yl}pyrazine-2-carbonitrile] is 2.3-fold lower in IC50: 430 nM for the first, 186 nM for the second. The second is the more potent here.

`CC(C)(C)NS(=O)(=O)c1ccccc1-c1ccc(-c2cc(N)c3[nH]ccc3c2)c(F)c1` [Example 458, 4′-(7-Amino-1H-indol-5-yl)-N-tert-butyl-3′-fluorobiphenyl-2-sulfonamide] and `CC(O)CNS(=O)(=O)c1ccccc1-c1ccc(-c2cnc(N)c(C#N)n2)c(F)c1` (stereo in doubt) [Example 415, 4′-(5-Amino-6-cyanopyrazin-2-yl)-3′-fluoro-N-[(2R)-2-hydroxypropyl]biphenyl-2-sulfonamide] are within 1.5-fold of each other in IC50: 53 nM for the first, 37 nM for the second.

`N#Cc1nc(N)cnc1-c1ccc(-c2ccccc2Oc2nccc(N)n2)cc1F` [Example 745, 6-Amino-3-{2′-[(4-aminopyrimidin-2-yl)oxy]-3-fluorobiphenyl-4-yl}pyrazine-2-carbonitrile] was tested, and the IC50 was 111 nM.

Same assay, conditions: Homo sapiens, human whole blood diluted 1:1 in RPMI, A23187-stimulated LTB4; read-out: LTB4 IC50 1:1

First: Cc1cccc(-c2ccc(-c3cnc(N)nc3)c(F)c2)c1S(=O)(=O)NC(C)(C)C [Example 287, 4′-(2-Aminopyrimidin-5-yl)-N-tert-butyl-3′-fluoro-3-methylbiphenyl-2-sulfonamide trifluoroacetic acid salt]
Second: CC(C)(CCO)NS(=O)(=O)c1ccccc1-c1ccc(-c2cnc(N)cn2)c(F)c1 [Example 102, 4′-(5-Aminopyrazin-2-yl)-3′-fluoro-N-(3-hydroxy-1,1-dimethylpropyl)biphenyl-2-sulfonamide]
The IC50 of the first is 2.1-fold higher: 74 nM for the first, 35 nM for the second.

First: Nc1ccc(-c2ccc(-c3ccccc3S(=O)(=O)N[C@@H](c3ccccc3)C(F)(F)F)cc2F)cn1 [Example 351, (S)-4′-(6-Aminopyridin-3-yl)-3′-fluoro-N-(2,2,2-trifluoro-1-phenylethyl)-[1,1′-biphenyl]-2-sulfonamide]
Second: C[C@H](NS(=O)(=O)c1ccccc1-c1ccc(-c2cnc(N)cn2)c(F)c1)c1ccccc1 [Example 24, (R)-4′-(5-Aminopyrazin-2-yl)-3′-fluoro-N-[(1R)-1-phenylethyl]biphenyl-2-sulfonamide]
The IC50 of the first is 6.2-fold higher: 297 nM for the first, 48 nM for the second.

Going from `Nc1cnc(-c2ccc(-c3ccccc3S(=O)(=O)N[C@H](CO)Cc3ccccc3)cc2F)cn1` [Example 116, (S)-4′-(5-Aminopyrazin-2-yl)-3′-fluoro-N-(1-hydroxy-3-phenylpropan-2-yl)-[1,1′-biphenyl]-2-sulfonamide] to `C[C@@H](CO)NS(=O)(=O)c1ccccc1-c1ccc(-c2cnc(N)cn2)c(F)c1` [Example 25, (R)-4′-(5-Aminopyrazin-2-yl)-3′-fluoro-N-[(1R)-2-hydroxy-1-methylethyl]biphenyl-2-sulfonamide], the IC50 rises from 12 nM to 23 nM (1.9-fold). The first is the more potent here.

Compared with `CC(=O)NC1CCN(S(=O)(=O)c2ccccc2-c2ccc(-c3cnc(N)cn3)c(F)c2)CC1` [Example 75, N-(1-{[4′-(5-Aminopyrazin-2-yl)-3′-fluorobiphenyl-2-yl]sulfonyl}piperidin-4-yl)acetamide], `Nc1cnc(-c2ccc(-c3ccccc3S(=O)(=O)N3CCCC(O)C3)cc2F)cn1` (racemic) [Example 70, racemic 1-{[4′-(5-Aminopyrazin-2-yl)-3′-fluorobiphenyl-2-yl]sulfonyl}piperidin-3-ol] is 18-fold lower in IC50: 185 nM for the first, 10 nM for the second.

Compared with `CC(NS(=O)(=O)c1ccccc1-c1ccc(-c2cnc3[nH]ccc3n2)c(F)c1)C(F)(F)F` (racemic) [Example 376, racemic 3′-Fluoro-4′-(5H-pyrrolo[2,3-b]pyrazin-2-yl)-N-(2,2,2-trifluoro-1-methylethyl)biphenyl-2-sulfonamide], `CSc1ccc(F)cc1-c1ccc(-c2cnc3[nH]ccc3n2)c(F)c1` [Example 383, 2-[3,5′-Difluoro-2′-(methylsulfanyl)biphenyl-4-yl]-5H-pyrrolo[2,3-b]pyrazine] is 160-fold higher in IC50: 10 nM for the first, 1630 nM for the second. The first is the more potent here.

First: Nc1cnc(-c2ccc(-c3ccccc3S(=O)(=O)NCCCO)cc2F)cn1 [Example 80, 4′-(5-Aminopyrazin-2-yl)-3′-fluoro-N-(3-hydroxypropyl)biphenyl-2-sulfonamide]
Second: Nc1cnc(-c2ccc(-c3ccccc3S(=O)(=O)N3CCCC(CO)C3)cc2F)cn1 (racemic) [Example 76, racemic (1-{[4′-(5-Aminopyrazin-2-yl)-3′-fluorobiphenyl-2-yl]sulfonyl}piperidin-3-yl)methanol]
The IC50 of the first is 3.3-fold higher: 88 nM for the first, 27 nM for the second.

Compared with `C[C@@H]([C@@H](O)c1ccccc1)N(C)S(=O)(=O)c1ccccc1-c1ccc(-c2cnc(N)cn2)c(F)c1` [Example 118, 4′-(5-aminopyrazin-2-yl)-3′-fluoro-N-((1S,2S)-1-hydroxy-1-phenylpropan-2-yl)-N-methyl-[1,1′-biphenyl]-2-sulfonamide], `Nc1cnc(-c2ccc(-c3ccccc3S(=O)(=O)N[C@H]3CCCCNC3=O)cc2F)cn1` (stereo in doubt) [Example 28, (S)-4′-(5-Aminopyrazin-2-yl)-3′-fluoro-N-[(3S)-2-oxoazepan-3-yl]biphenyl-2-sulfonamide] is 54-fold higher in IC50: 6 nM for the first, 325 nM for the second. The first is the more potent here.

First: C[C@H](CO)NS(=O)(=O)c1ccccc1-c1ccc(-c2cnc3c(c2)OCCN3)c(F)c1 [Example 390, 4′-(3,4-Dihydro-2H-pyrido[3,2-b][1,4]oxazin-7-yl)-3′-fluoro-N-[(1R)-2-hydroxy-1-methylethyl]biphenyl-2-sulfonamide]
Second: NC1CCN(S(=O)(=O)c2ccccc2-c2ccc(-c3cnc4c(c3)OCCN4)c(F)c2)CC1 [Example 389, 1-{[4′-(3,4-Dihydro-2H-pyrido[3,2-b][1,4]oxazin-7-yl)-3′-fluorobiphenyl-2-yl]sulfonyl}piperidin-4-amine]
The IC50 of the first is 14-fold lower: 10 nM for the first, 137 nM for the second.

Compared with `Nc1ncc(-c2ccc(-c3ccccc3S(=O)(=O)N3CCN(C4CC4)CC3)cc2F)cn1` [Example 281, 5-{2′-[(4-Cyclopropylpiperazin-1-yl)sulfonyl]-3-fluorobiphenyl-4-yl}pyrimidin-2-amine trifluoroacetic acid salt], `Nc1cnc(-c2ccc(-c3ccccc3NS(=O)(=O)N3CCCC3)cc2F)cn1` [Example 181, N-[4′-(5-Aminopyrazin-2-yl)-3′-fluorobiphenyl-2-yl]pyrrolidine-1-sulfonamide] is 5.5-fold higher in IC50: 44 nM for the first, 240 nM for the second. The first is the more potent here.

These molecules were tested against human FLAP (Homo sapiens (Human), UniProt P20292) (assay: FLAP binding assay (HTRF format)). Conditions: human FLAP wild type, HTRF format; average of two plates, duplicates.
Sequence of human FLAP (P20292 whole entry): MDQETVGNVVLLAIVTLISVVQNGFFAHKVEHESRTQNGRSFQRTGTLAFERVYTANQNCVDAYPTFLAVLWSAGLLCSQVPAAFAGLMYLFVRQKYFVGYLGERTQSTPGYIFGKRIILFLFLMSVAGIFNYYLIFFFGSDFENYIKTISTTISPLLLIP
In short: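 Binding of compounds to FLAP read out as HTRF ratio. Values are the mean of two assay plates, each sample run in duplicate per plate.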

Going from `Cc1cccc(-c2ccc(-c3cnc(N)nc3)c(F)c2)c1S(=O)(=O)NC(C)(C)C` [Example 287, 4′-(2-Aminopyrimidin-5-yl)-N-tert-butyl-3′-fluoro-3-methylbiphenyl-2-sulfonamide trifluoroacetic acid salt] to `Nc1ccc(-c2ccc(-c3ccccc3S(=O)(=O)N[C@@H](c3ccccc3)C(F)(F)F)cc2F)cn1` [Example 351, (S)-4′-(6-Aminopyridin-3-yl)-3′-fluoro-N-(2,2,2-trifluoro-1-phenylethyl)-[1,1′-biphenyl]-2-sulfonamide], the Ki rises from 9 nM to 17 nM (1.9-fold).

Compared with `Nc1cnc(-c2ccc(-c3ccccc3S(=O)(=O)N[C@H](CO)Cc3ccccc3)cc2F)cn1` [Example 116, (S)-4′-(5-Aminopyrazin-2-yl)-3′-fluoro-N-(1-hydroxy-3-phenylpropan-2-yl)-[1,1′-biphenyl]-2-sulfonamide], `CC(=O)NC1CCN(S(=O)(=O)c2ccccc2-c2ccc(-c3cnc(N)cn3)c(F)c2)CC1` [Example 75, N-(1-{[4′-(5-Aminopyrazin-2-yl)-3′-fluorobiphenyl-2-yl]sulfonyl}piperidin-4-yl)acetamide] is 12-fold higher in Ki: 1 nM for the first, 12 nM for the second.

Same assay, conditions: wild type FLAP, HTRF format

Compared with `N#CC1(S(=O)(=O)c2ccccc2-c2ccc(-c3cnc(N)nc3)c(F)c2)CCCC1` [Example 738, 1-{[4′-(2-Aminopyrimidin-5-yl)-3′-fluorobiphenyl-2-yl]sulfonyl}cyclopentanecarbonitrile], `CC(C)(C)NS(=O)(=O)c1ccccc1-c1cnc(-c2cnc(N)nc2)c(F)c1` [Example 675, 2-[6-(2-Aminopyrimidin-5-yl)-5-fluoropyridin-3-yl]-N-tert-butylbenzenesulfonamide] is 340-fold lower in Ki: 240 nM for the first, 0.7 nM for the second.
